Experimental data reported in US10787452B2 (Vertex Pharmaceuticals Incorporated, priority 2012, dated 2020).

Tested on: HCT116 colorectal cancer cells
Experiment: Cisplatin sensitization assay (96 h cell viability MTS);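 also: compound concentration needed to lower the Cisplatin-alone IC50 by a set fold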
Type: cell-based
Conditions: 96 h MTS, compound plus Cisplatin
Method in brief: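 Viability was measured by MTS after 96 h co-exposure of HCT116 colorectal cells to a full-matrix dilution grid of compound and cisplatin (2-fold steps, highest final concentration 10 μM, added together). Plates were kept at 37 °C in 5% CO2, and the MTS reagent was incubated for 1 h before reading.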

| SMILES | Cisplatin Sensitization Assay |
| --- | --- |
| Nc1nn2cc(F)cnc2c1C(=O)Nc1cnccc1N1CCN(C2COC2)CC1 [I-N-1, 2-amino-6-fluoro-N-(4-(4-(oxetan-3-yl)piperazin-1-yl)pyridin-3-yl)pyrazolo[1,5-a]pyrimidine-3-carboxamide] | ++ (Compounds with a Cisplatin sensitization value >0.02 μM but <0.2 μM are marked with “++.”) |
| N#CCc1cnc2c(C(=O)Nc3cnccc3N3CCC(N)CC3)c(N)nn2c1 [I-N-2, 2-amino-N-(4-(4-aminopiperidin-1-yl)pyridin-3-yl)-6-(cyanomethyl)pyrazolo[1,5-a]pyrimidine-3-carboxamide] | +++ (Compounds with a Cisplatin sensitization value of <0.02 μM are marked with “+++.”) |
| CN1CCN(c2ccncc2NC(=O)c2c(N)nn3cc(F)cnc23)CC1 [I-N-3, 2-amino-6-fluoro-N-(4-(4-methylpiperazin-1-yl)pyridin-3-yl)pyrazolo[1,5-a]pyrimidine-3-carboxamide] | +++ (Compounds with a Cisplatin sensitization value of <0.02 μM are marked with “+++.”) |
| CC(C)N1CCN(c2ccncc2NC(=O)c2c(N)nn3cc(F)cnc23)CC1 [I-N-4, 2-amino-6-fluoro-N-(4-(4-isopropylpiperazin-1-yl)pyridin-3-yl)pyrazolo[1,5-a]pyrimidine-3-carboxamide] | +++ (Compounds with a Cisplatin sensitization value of <0.02 μM are marked with “+++.”) |
| CN1CCN(c2c(NC(=O)c3c(N)nn4cc(F)cnc34)cncc2C2CC2)CC1 [I-N-5, 2-amino-N-(5-cyclopropyl-4-(4-methylpiperazin-1-yl)pyridin-3-yl)-6-fluoropyrazolo[1,5-a]pyrimidine-3-carboxamide] | ++ (Compounds with a Cisplatin sensitization value >0.02 μM but <0.2 μM are marked with “++.”) |
| Nc1nn2cc(F)cnc2c1C(=O)Nc1cnccc1-n1ccnc1 [I-N-7, N-(4-(1H-imidazol-1-yl)pyridin-3-yl)-2-amino-6-fluoropyrazolo[1,5-a]pyrimidine-3-carboxamide] | ++ (Compounds with a Cisplatin sensitization value >0.02 μM but <0.2 μM are marked with “++.”) |
| CNCCc1cnn(-c2ccncc2NC(=O)c2c(N)nn3cc(F)cnc23)c1 [I-N-8, 2-amino-6-fluoro-N-(4-(4-(2-(methylamino)ethyl)-1H-pyrazol-1-yl)pyridin-3-yl)pyrazolo[1,5-a]pyrimidine-3-carboxamide] | + (Compounds with a Cisplatin sensitization value >0.2 μM but <5 μM are marked with “+.”) |
| CN(C)CCc1cnn(-c2ccncc2NC(=O)c2c(N)nn3cc(F)cnc23)c1 [I-N-9, 2-amino-N-(4-(4-(2-(dimethylamino)ethyl)-1H-pyrazol-1-yl)pyridin-3-yl)-6-fluoropyrazolo[1,5-a]pyrimidine-3-carboxamide] | + (Compounds with a Cisplatin sensitization value >0.2 μM but <5 μM are marked with “+.”) |
| Nc1nn2cc(F)cnc2c1C(=O)Nc1cnccc1N1CCN([C@@H]2CCOC2)CC1 [I-N-10, (R)-2-amino-6-fluoro-N-(4-(4-(tetrahydrofuran-3-yl)piperazin-1-yl)pyridin-3-yl)pyrazolo[1,5-a]pyrimidine-3-carboxamide] | ++ (Compounds with a Cisplatin sensitization value >0.02 μM but <0.2 μM are marked with “++.”) |
| Nc1nn2cc(F)cnc2c1C(=O)Nc1cnccc1N1CCN(C2CCOCC2)CC1 [I-N-11, 2-amino-6-fluoro-N-(4-(4-(tetrahydro-2H-pyran-4-yl)piperazin-1-yl)pyridin-3-yl)pyrazolo[1,5-a]pyrimidine-3-carboxamide] | ++ (Compounds with a Cisplatin sensitization value >0.02 μM but <0.2 μM are marked with “++.”) |
| Nc1nn2cc(F)cnc2c1C(=O)Nc1cncc(F)c1N1CCN(C2COC2)CC1 [I-N-13, 2-amino-6-fluoro-N-(5-fluoro-4-(4-(oxetan-3-yl)piperazin-1-yl)pyridin-3-yl)pyrazolo[1,5-a]pyrimidine-3-carboxamide] | +++ (Compounds with a Cisplatin sensitization value of <0.02 μM are marked with “+++.”) |
| CN1CCN(c2c(F)cncc2NC(=O)c2c(N)nn3cc(Cl)cnc23)CC1 [I-N-14, 2-amino-6-chloro-N-(5-fluoro-4-(4-methylpiperazin-1-yl)pyridin-3-yl)pyrazolo[1,5-a]pyrimidine-3-carboxamide] | +++ (Compounds with a Cisplatin sensitization value of <0.02 μM are marked with “+++.”) |
| CN1CCN(c2c(F)cncc2NC(=O)c2c(N)nn3cc(F)cnc23)CC1 [I-N-15, 2-amino-6-fluoro-N-(5-fluoro-4-(4-methylpiperazin-1-yl)pyridin-3-yl)pyrazolo[1,5-a]pyrimidine-3-carboxamide] | +++ (Compounds with a Cisplatin sensitization value of <0.02 μM are marked with “+++.”) |
| Cc1cncc(NC(=O)c2c(N)nn3cc(F)cnc23)c1N1CCN(C2COC2)CC1 [I-N-16, 2-amino-6-fluoro-N-(5-methyl-4-(4-(oxetan-3-yl)piperazin-1-yl)pyridin-3-yl)pyrazolo[1,5-a]pyrimidine-3-carboxamide] | +++ (Compounds with a Cisplatin sensitization value of <0.02 μM are marked with “+++.”) |
| CCN1CCN(c2ccncc2NC(=O)c2c(N)nn3cc(F)cnc23)CC1 [I-N-17, 2-amino-N-(4-(4-ethylpiperazin-1-yl)pyridin-3-yl)-6-fluoropyrazolo[1,5-a]pyrimidine-3-carboxamide] | +++ (Compounds with a Cisplatin sensitization value of <0.02 μM are marked with “+++.”) |
| Nc1nn2cc(F)cnc2c1C(=O)Nc1cnccc1N1CCN2CCC1CC2 [I-N-18, N-(4-(1,4-diazabicyclo[3.2.2]nonan-4-yl)pyridin-3-yl)-2-amino-6-fluoropyrazolo[1,5-a]pyrimidine-3-carboxamide] | ++ (Compounds with a Cisplatin sensitization value >0.02 μM but <0.2 μM are marked with “++.”) |
| Nc1nn2cc(F)cnc2c1C(=O)Nc1cnccc1N1CCN(CC(F)(F)F)CC1 [I-N-20, 2-amino-6-fluoro-N-(4-(4-(2,2,2-trifluoroethyl)piperazin-1-yl)pyridin-3-yl)pyrazolo[1,5-a]pyrimidine-3-carboxamide] | +++ (Compounds with a Cisplatin sensitization value of <0.02 μM are marked with “+++.”) |
| Nc1nn2cc(F)cnc2c1C(=O)Nc1cnccc1N1CCN2CCC[C@H]2C1 [I-N-21, (S)-2-amino-6-fluoro-N-(4-(hexahydropyrrolo[1,2-a]pyrazin-2(1H)-yl)pyridin-3-yl)pyrazolo[1,5-a]pyrimidine-3-carboxamide] | +++ (Compounds with a Cisplatin sensitization value of <0.02 μM are marked with “+++.”) |
| C[C@@H]1CN(C2COC2)CCN1c1ccncc1NC(=O)c1c(N)nn2cc(F)cnc12 [I-N-23, (R)-2-amino-6-fluoro-N-(4-(2-methyl-4-(oxetan-3-yl)piperazin-1-yl)pyridin-3-yl)pyrazolo[1,5-a]pyrimidine-3-carboxamide] | +++ (Compounds with a Cisplatin sensitization value of <0.02 μM are marked with “+++.”) |
| C[C@H]1CN(C2COC2)CCN1c1ccncc1NC(=O)c1c(N)nn2cc(F)cnc12 [I-N-24, (S)-2-amino-6-fluoro-N-(4-(2-methyl-4-(oxetan-3-yl)piperazin-1-yl)pyridin-3-yl)pyrazolo[1,5-a]pyrimidine-3-carboxamide] | +++ (Compounds with a Cisplatin sensitization value of <0.02 μM are marked with “+++.”) |
| Nc1nn2cc(F)cnc2c1C(=O)Nc1cnccc1-n1cccn1 [I-N-26, N-(4-(1H-pyrazol-1-yl)pyridin-3-yl)-2-amino-6-fluoropyrazolo[1,5-a]pyrimidine-3-carboxamide] | + (Compounds with a Cisplatin sensitization value >0.2 μM but <5 μM are marked with “+.”) |
| Nc1nn2cc(F)cnc2c1C(=O)Nc1cnccc1-n1cnc(C(F)(F)F)c1 [I-N-27, 2-amino-6-fluoro-N-(4-(4-(trifluoromethyl)-1H-imidazol-1-yl)pyridin-3-yl)pyrazolo[1,5-a]pyrimidine-3-carboxamide] | ++ (Compounds with a Cisplatin sensitization value >0.02 μM but <0.2 μM are marked with “++.”) |
| Cc1nccn1-c1ccncc1NC(=O)c1c(N)nn2cc(F)cnc12 [I-N-28, 2-amino-6-fluoro-N-(4-(2-methyl-1H-imidazol-1-yl)pyridin-3-yl)pyrazolo[1,5-a]pyrimidine-3-carboxamide] | +++ (Compounds with a Cisplatin sensitization value of <0.02 μM are marked with “+++.”) |
| Nc1nn2cc(Cl)cnc2c1C(=O)Nc1cnccc1-n1ccnc1 [I-N-29, N-(4-(1H-imidazol-1-yl)pyridin-3-yl)-2-amino-6-chloropyrazolo[1,5-a]pyrimidine-3-carboxamide] | ++ (Compounds with a Cisplatin sensitization value >0.02 μM but <0.2 μM are marked with “++.”) |
| Cc1nc(C(F)(F)F)cn1-c1ccncc1NC(=O)c1c(N)nn2cc(F)cnc12 [I-N-30, 2-amino-6-fluoro-N-(4-(2-methyl-4-(trifluoromethyl)-1H-imidazol-1-yl)pyridin-3-yl)pyrazolo[1,5-a]pyrimidine-3-carboxamide] | ++ (Compounds with a Cisplatin sensitization value >0.02 μM but <0.2 μM are marked with “++.”) |
| Nc1nn2cc(F)cnc2c1C(=O)Nc1cnccc1N1CCN(C2COC2)C2CC21 (stereo not shown) [I-N-31, 2-amino-6-fluoro-N-(4-(5-(oxetan-3-yl)-2,5-diazabicyclo[4.1.0]heptan-2-yl)pyridin-3-yl)pyrazolo[1,5-a]pyrimidine-3-carboxamide] | + (Compounds with a Cisplatin sensitization value >0.2 μM but <5 μM are marked with “+.”) |
| Nc1nn2cc(F)cnc2c1C(=O)Nc1cncc(C2CC2)c1N1CCN(C2COC2)CC1 [I-N-32, 2-amino-N-(5-cyclopropyl-4-(4-(oxetan-3-yl)piperazin-1-yl)pyridin-3-yl)-6-fluoropyrazolo[1,5-a]pyrimidine-3-carboxamide] | ++ (Compounds with a Cisplatin sensitization value >0.02 μM but <0.2 μM are marked with “++.”) |
| Nc1nn2cc(F)cnc2c1C(=O)Nc1cnccc1N1CCN(C2CC2)CC1 [I-N-33, 2-amino-N-(4-(4-cyclopropylpiperazin-1-yl)pyridin-3-yl)-6-fluoropyrazolo[1,5-a]pyrimidine-3-carboxamide] | + (Compounds with a Cisplatin sensitization value >0.2 μM but <5 μM are marked with “+.”) |
